Laboratory results: patent US20090247559A1 (Exelixis, Inc., priority 2007, published 2009)
Like-named read-outs stand apart in the source and are kept apart here.

Tests used:
CDC7 = CDC7 (Homo sapiens, UniProt O00311); experiment: CDC7 inhibition, biochemical chemiluminescence assay (Kinase Glo, IC50 determination)
Protocol: Characterization of CDC7 Inhibition in a Biochemical Chemiluminesence Assay (IC50 Determination):
The IC50 evaluation of compounds against the CDC7 enzyme was performed in a Chemiluminesence assay utilizing a Greiner 384-well white binding plate format. […] Upon addition of 10 μL of CDC-7 (GB) to the designated well plates and subsequent incubation for ten minutes at ambient temperature, 10 μL of ATP mix in Tris Base was added. Following an incubation period of 90 minutes at ambient temperature (24-27° C.), 20 μL of Kinase Glo (Promega) was added to measure kinase activity by quantitating the amount of ATP remaining in solution. The luminescence was measured following a Luciferase Protocol on either EnVision or Victor plate readers.

[1] = molecular target: PIM (PIM-1, PIM-2, and/or PIM-3); experiment: PIM-1, PIM-2 and PIM-3 inhibition, biochemical chemiluminescence assays (Kinase Glo, IC50 determination); conditions: Table 1 activity class; PIM refers to PIM-1, PIM-2, and/or PIM-3; read-out: PIM IC50 (Activity B)
CK2 = CK2 (Homo sapiens, UniProt P68400); experiment: CK2 inhibition, biochemical chemiluminescence holoenzyme assay (Kinase Glo, IC50 determination); conditions: Table 1 activity class; symbol given only if active; read-out: CK2 IC50 (Activity C)
In short: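 Holoenzyme CK2 assay; compounds pre-incubated with substrate and enzyme, then reacted 150 min at 24-27° C. Remaining ATP measured as luminescence with Kinase Glo, and IC50 derived from the signal.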

[2] = Table 1 activity class, symbol given only if active, read-out: CDC7 IC50 (Activity A)
[3] = compounds in Table 1, read-out: CDC7 IC50 value

Chain of CK2 (P68400 whole entry): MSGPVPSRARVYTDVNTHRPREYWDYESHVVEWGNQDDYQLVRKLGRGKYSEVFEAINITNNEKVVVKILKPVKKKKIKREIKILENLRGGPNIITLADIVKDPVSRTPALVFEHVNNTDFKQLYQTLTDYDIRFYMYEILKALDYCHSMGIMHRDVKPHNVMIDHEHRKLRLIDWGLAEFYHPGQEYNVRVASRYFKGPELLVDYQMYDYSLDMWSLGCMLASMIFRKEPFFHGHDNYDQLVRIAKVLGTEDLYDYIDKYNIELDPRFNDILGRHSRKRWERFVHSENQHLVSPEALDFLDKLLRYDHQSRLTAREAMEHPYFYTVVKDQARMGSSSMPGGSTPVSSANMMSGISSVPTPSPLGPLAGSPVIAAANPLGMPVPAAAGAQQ
Chain of CK2 (P67870 whole entry partner): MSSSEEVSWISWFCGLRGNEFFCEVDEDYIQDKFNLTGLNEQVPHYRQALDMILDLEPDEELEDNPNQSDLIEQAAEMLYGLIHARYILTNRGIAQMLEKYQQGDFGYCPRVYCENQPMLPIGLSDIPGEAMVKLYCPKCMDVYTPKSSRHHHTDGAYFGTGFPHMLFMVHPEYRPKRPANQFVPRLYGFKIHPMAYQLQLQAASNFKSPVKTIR
Chain of CDC7 (O00311 whole entry): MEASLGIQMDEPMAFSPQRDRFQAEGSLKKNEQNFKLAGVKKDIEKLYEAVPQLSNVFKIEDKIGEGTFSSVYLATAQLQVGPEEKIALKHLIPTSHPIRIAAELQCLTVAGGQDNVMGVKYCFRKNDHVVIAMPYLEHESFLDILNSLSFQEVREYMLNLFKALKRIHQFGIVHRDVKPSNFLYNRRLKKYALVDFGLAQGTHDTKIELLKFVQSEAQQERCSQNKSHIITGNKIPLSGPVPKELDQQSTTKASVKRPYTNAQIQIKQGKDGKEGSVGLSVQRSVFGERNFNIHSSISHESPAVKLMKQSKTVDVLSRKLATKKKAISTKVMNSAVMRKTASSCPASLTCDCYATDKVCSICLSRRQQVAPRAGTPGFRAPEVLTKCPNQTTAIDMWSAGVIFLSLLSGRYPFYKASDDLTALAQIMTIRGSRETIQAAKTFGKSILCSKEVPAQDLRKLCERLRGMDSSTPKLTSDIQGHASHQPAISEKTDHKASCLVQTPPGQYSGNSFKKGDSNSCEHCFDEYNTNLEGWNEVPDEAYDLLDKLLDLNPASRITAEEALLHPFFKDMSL
Chain of CDC7 (Q9UBU7 whole entry partner): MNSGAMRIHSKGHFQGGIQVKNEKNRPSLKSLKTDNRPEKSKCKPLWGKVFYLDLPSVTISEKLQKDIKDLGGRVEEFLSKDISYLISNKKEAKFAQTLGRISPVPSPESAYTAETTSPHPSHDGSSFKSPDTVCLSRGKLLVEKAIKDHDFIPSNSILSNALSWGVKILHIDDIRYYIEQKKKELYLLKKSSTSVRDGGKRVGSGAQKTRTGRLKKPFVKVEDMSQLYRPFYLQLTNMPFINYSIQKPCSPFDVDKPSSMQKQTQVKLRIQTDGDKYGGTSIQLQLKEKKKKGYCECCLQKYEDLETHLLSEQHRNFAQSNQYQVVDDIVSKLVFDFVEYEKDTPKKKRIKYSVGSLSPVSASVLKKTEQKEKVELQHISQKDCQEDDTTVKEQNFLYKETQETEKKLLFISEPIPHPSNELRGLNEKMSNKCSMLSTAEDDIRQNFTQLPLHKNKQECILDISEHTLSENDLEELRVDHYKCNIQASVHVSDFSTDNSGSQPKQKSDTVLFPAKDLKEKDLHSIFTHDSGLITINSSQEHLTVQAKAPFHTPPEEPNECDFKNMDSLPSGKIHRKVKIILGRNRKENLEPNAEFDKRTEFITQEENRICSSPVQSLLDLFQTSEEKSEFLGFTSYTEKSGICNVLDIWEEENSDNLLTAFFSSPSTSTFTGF

| Compound | IC50 (CDC7; [2]) | IC50 [1] | IC50 (CK2) | IC50 (CDC7; [3]) | IC50 (CDC7; CDC7 IC50 (Activity A), Table 1 activity class, symbol given only if active) | IC50 (CDC7; CDC7 IC50 value, compounds in Table 1) |
| --- | --- | --- | --- | --- | --- | --- |
| O=c1[nH]c(-c2ccc(Br)cc2Cl)nc2c1oc1ccc(Br)cc12 [Compound 116, 8-bromo-2-(4-bromo-2-chlorophenyl)[1]benzofuro[3,2-d]pyrimidin-4(3H)-one] | < 10 µM | < 10 µM | < 10 µM |  |  |  |
| O=c1[nH]c(CN2C[C@@H]3C[C@H]2CN3)nc2c1oc1ccc(Br)cc12 [Compound 119, 8-bromo-2-[(1S,4S)-2,5-diazabicyclo[2.2.1]hept-2-ylmethyl][1]benzofuro[3,2-d]pyrimidin-4(3H)-one] |  | < 10 µM | < 10 µM |  | < 10 µM | < 0.1 µM |
| CC(=O)Nc1ccc(-c2nc3c(oc4ccc(Br)cc43)c(=O)[nH]2)c(Cl)c1 [Compound 121, N-[4-(8-bromo-4-oxo-3,4-dihydro[1]benzofuro[3,2-d]pyrimidin-2-yl)-3-chlorophenyl]acetamide] | < 10 µM | < 10 µM | < 10 µM |  |  |  |
| Cc1n[nH]c2ccc(-c3nc4c(oc5ccc(Br)cc54)c(=O)[nH]3)cc12 [Compound 123, 8-bromo-2-(3-methyl-1H-indazol-5-yl)[1]benzofuro[3,2-d]pyrimidin-4(3H)-one] | < 10 µM | < 10 µM | < 10 µM |  |  |  |
| COc1ccc2oc3c(=O)[nH]c(-c4ccc([N+](=O)[O-])cc4Cl)nc3c2c1 [Compound 124, 2-(2-chloro-4-nitrophenyl)-8-(methyloxy)[1]benzofuro[3,2-d]pyrimidin-4(3H)-one] | < 10 µM | < 10 µM | < 10 µM |  |  |  |
| O=c1[nH]c(-c2cc([N+](=O)[O-])ccc2Cl)nc2c1oc1ccc(Br)cc12 [Compound 126, 8-bromo-2-(2-chloro-5-nitrophenyl)[1]benzofuro[3,2-d]pyrimidin-4(3H)-one] | < 10 µM | < 10 µM | < 10 µM |  |  |  |
| CN(C)CC(=O)Nc1ccc(-c2nc3c(oc4ccc(Br)cc43)c(=O)[nH]2)c(Cl)c1 [Compound 127, N-[4-(8-bromo-4-oxo-3,4-dihydro[1]benzofuro[3,2-d]pyrimidin-2-yl)-3-chlorophenyl]-N′2′,N′2′-dimethylglycinamide] | < 10 µM | < 10 µM | < 10 µM |  |  |  |
| CS(=O)(=O)c1ccc(-c2nc3c(oc4ccc(Br)cc43)c(=O)[nH]2)c(Cl)c1 [Compound 128, 8-bromo-2-[2-chloro-4-(methylsulfonyl)phenyl][1]benzofuro[3,2-d]pyrimidin-4(3H)-one] | < 10 µM | < 10 µM | < 10 µM | < 0.1 µM |  |  |
| CN(C)CCC(=O)Nc1ccc(-c2nc3c(oc4ccc(Br)cc43)c(=O)[nH]2)c(Cl)c1 [Compound 135, N-[4-(8-bromo-4-oxo-3,4-dihydro[1]benzofuro[3,2-d]pyrimidin-2-yl)-3-chlorophenyl]-N′3′,N′3′-dimethyl-beta-alaninamide] | < 10 µM | < 10 µM | < 10 µM |  |  |  |
| COc1ccc2oc3c(=O)[nH]c(-c4ccc(NCC5CCNCC5)cc4Cl)nc3c2c1 [Compound 138, 2-{2-chloro-4-[(piperidin-4-ylmethyl)amino]phenyl}-8-(methyloxy)[1]benzofuro[3,2-d]pyrimidin-4(3H)-one] | < 10 µM | < 10 µM | < 10 µM |  |  |  |
| O=C(Nc1ccc(-c2nc3c(oc4ccc(Br)cc43)c(=O)[nH]2)c(Cl)c1)C1CCCNC1 (stereo not shown) [Compound 140, N-[4-(8-bromo-4-oxo-3,4-dihydro[1]benzofuro[3,2-d]pyrimidin-2-yl)-3-chlorophenyl]piperidine-3-carboxamide] | < 10 µM | < 10 µM | < 10 µM |  |  |  |
| O=C(Nc1ccc(-c2nc3c(oc4ccc(Br)cc43)c(=O)[nH]2)c(Cl)c1)c1ccncc1 [Compound 143, N-[4-(8-bromo-4-oxo-3,4-dihydro[1]benzofuro[3,2-d]pyrimidin-2-yl)-3-chlorophenyl]pyridine-4-carboxamide] | < 10 µM | < 10 µM | < 10 µM |  |  |  |
| COc1ccc2oc3c(=O)[nH]c(-c4ccc(F)cc4Cl)nc3c2c1 [Compound 144, 2-(2-chloro-4-fluorophenyl)-8-(methyloxy)[1]benzofuro[3,2-d]pyrimidin-4(3H)-one] | < 10 µM | < 10 µM | < 10 µM |  |  |  |

More lines, main results first:

| IC50 (CDC7; [2]) | IC50 [1] | IC50 (CK2) | IC50 (CDC7; [3]) | Compound | IC50 (CDC7; CDC7 IC50 (Activity A), Table 1 activity class, symbol given only if active) | IC50 (CDC7; CDC7 IC50 value, compounds in Table 1) |
| --- | --- | --- | --- | --- | --- | --- |
| < 10 µM | < 10 µM | < 10 µM |  | Cc1nccn1Cc1nc2c(oc3ccc(Br)cc32)c(=O)[nH]1 [Compound 100, 8-bromo-2-[(2-methyl-1H-imidazol-1-yl)methyl][1]benzofuro[3,2-d]pyrimidin-4(3H)-one] |  |  |
| < 10 µM | < 10 µM | < 10 µM | < 0.1 µM | O=C(O)C1CCN(Cc2nc3c(oc4ccc(Br)cc43)c(=O)[nH]2)C1 (stereo not shown) [Compound 103, 1-[(8-bromo-4-oxo-3,4-dihydro[1]benzofuro[3,2-d]pyrimidin-2-yl)methyl]pyrrolidine-3-carboxylic acid] |  |  |
| < 10 µM | < 10 µM | < 10 µM |  | O=c1[nH]c(-c2c(Cl)cncc2Cl)nc2c1oc1ccc(Br)cc12 [Compound 107, 8-bromo-2-(3,5-dichloropyridin-4-yl)[1]benzofuro[3,2-d]pyrimidin-4(3H)-one] |  |  |
| < 10 µM | < 10 µM | < 10 µM |  | O=c1[nH]c(CN2CCC(NCC3CCNCC3)C2)nc2c1oc1ccc(Br)cc12 (stereo not shown) [Compound 110, 8-bromo-2-({3-[(piperidin-4-ylmethyl)amino]pyrrolidin-1-yl}methyl)[1]benzofuro[3,2-d]pyrimidin-4(3H)-one] |  |  |
| < 10 µM | < 10 µM | < 10 µM |  | CN1CCN(c2ccc(CNCCc3nc4c(oc5ccc(Br)cc54)c(=O)[nH]3)cc2)CC1 [Compound 111, 8-bromo-2-[2-({[4-(4-methylpiperazin-1-yl)phenyl]methyl}amino)ethyl][1]benzofuro[3,2-d]pyrimidin-4(3H)-one] |  |  |
| < 10 µM | < 10 µM | < 10 µM |  | O=c1[nH]c(-c2ccncc2Cl)nc2c1oc1ccc(Br)cc12 [Compound 112, 8-bromo-2-(3-chloropyridin-4-yl)[1]benzofuro[3,2-d]pyrimidin-4(3H)-one] |  |  |
| < 10 µM | < 10 µM | < 10 µM |  | O=c1[nH]c(CN2CCN(CCn3ccnc3)CC2)nc2c1oc1ccc(Br)cc12 [Compound 113, 8-bromo-2-({4-[2-(1H-imidazol-1-yl)ethyl]piperazin-1-yl}methyl)[1]benzofuro[3,2-d]pyrimidin-4(3H)-one] |  |  |
| < 10 µM | < 10 µM | < 10 µM |  | O=c1[nH]c(CN2CCC(F)(F)CC2)nc2c1oc1ccc(Br)cc12 [Compound 114, 8-bromo-2-[(4,4-difluoropiperidin-1-yl)methyl][1]benzofuro[3,2-d]pyrimidin-4(3H)-one] |  |  |
| < 10 µM | < 10 µM | < 10 µM |  | CN1CCN(c2nc3c(oc4ccc(Br)cc43)c(=O)[nH]2)CC1 [Compound 115, 8-bromo-2-(4-methylpiperazin-1-yl)[1]benzofuro[3,2-d]pyrimidin-4(3H)-one] |  |  |
| < 10 µM | < 10 µM | < 10 µM |  | CNC1CCN(Cc2nc3c(oc4ccc(Br)cc43)c(=O)[nH]2)C1 (stereo not shown) [Compound 118, 8-bromo-2-{[3-(methylamino)pyrrolidin-1-yl]methyl}[1]benzofuro[3,2-d]pyrimidin-4(3H)-one] |  |  |
| < 10 µM | < 10 µM | < 10 µM |  | CC(C)(CN1CCOCC1)NCc1nc2c(oc3ccc(Br)cc32)c(=O)[nH]1 [Compound 130, 8-bromo-2-{[(1,1-dimethyl-2-morpholin-4-ylethyl)amino]methyl}[1]benzofuro[3,2-d]pyrimidin-4(3H)-one] |  |  |
| < 10 µM | < 10 µM | < 10 µM |  | Nc1ccc(Cl)c(-c2nc3c(oc4ccc(Br)cc43)c(=O)[nH]2)c1 [Compound 134, 2-(5-amino-2-chlorophenyl)-8-bromo[1]benzofuro[3,2-d]pyrimidin-4(3H)-one] |  |  |
| < 10 µM | < 10 µM | < 10 µM |  | O=c1[nH]c(CN2CCNCC2)nc2c1oc1ccc(Br)cc12 [Compound 141, 8-bromo-2-(piperazin-1-ylmethyl)[1]benzofuro[3,2-d]pyrimidin-4(3H)-one] |  |  |
| < 10 µM | < 10 µM | < 10 µM | < 0.1 µM | O=c1[nH]c(N2CCOCC2)nc2c1oc1ccc(Br)cc12 [Compound 147, 8-bromo-2-morpholin-4-yl[1]benzofuro[3,2-d]pyrimidin-4(3H)-one] |  |  |
| < 10 µM | < 10 µM | < 10 µM |  | O=c1[nH]c(-c2cnccc2Cl)nc2c1oc1ccc(Br)cc12 [Compound 148, 8-bromo-2-(4-chloropyridin-3-yl)[1]benzofuro[3,2-d]pyrimidin-4(3H)-one] |  |  |
| < 10 µM | < 10 µM | < 10 µM |  | CC(C)C(c1nc2c(oc3ccc(Br)cc32)c(=O)[nH]1)N1CCCC1 (stereo not shown) [Compound 153, 8-Bromo-2-(2-methyl-1-pyrrolidin-1-ylpropyl)[1]benzofuro[3,2-d]pyrimidin-4(3H)-one] |  |  |
